Assays:
[1] = Intravenous pharmacokinetics in CD-1 mouse; format: in vivo; conditions: plasma, iv bolus, male CD-1 mouse, dose 1.9-7.4 mg/kg per compound (Table 3); for clearance: read-out: Plasma CL
Protocol: Preliminary investigation of the intravenous pharmacokinetics of compounds of invention were carried out in fed conscious CD-1 mouse. Compounds were formulated as 1-10 mg/kg, 5 mL/kg, 1-2 mg/mL solution (Table 3). Twenty one male mice (n=3 mice per time point) (˜30 g) received dose solution by bolus injection in the tail vein. The formulation for iv were either 20% beta cyclodextrin in saline pH 3.5-6 or PEG400:ethanol:saline (50:15:35 v/v). Blood samples (˜0.4 mL) were collected terminally by cardiac puncture following anesthetization in a CO2 chamber at 2, 15, 30, 60 min, 2, 4, and 6 h following iv administration. Blood samples were collected into tubes containing heparin and placed on crushed ice promptly after collection. Plasma was collected by centrifugation, frozen and stored at about −80° C. prior to analysis. Blood or plasma concentrations were determined by LC/MS/MS equipped with an electrospray ion source and using calibration curves for the appropriate matrix. The lower level of quantitation (LLQ) was 10 ng/mL. Blood or plasma concentration-time data were analyzed by non-compartmental methods using the computer program WinNonlin Professional (version 4.1). Area under the blood or plasma concentration-time curve (AUC) was calculated using the linear trapezoidal rule for each incremental trapezoid up to Cmax, and the log trapezoidal rule for each trapezoid thereafter. The terminal elimination rate constant (λz) was derived from the log-linear disposition phase of the concentration-time curve using least-squares regression analysis with visual inspection of the data to determine the appropriate number of terminal data points for regression analysis.
Following iv administration, the total body clearance (CL) was estimated. CL was calculated by dividing the dose by AUC(0−t). The clearance values were assigned as follows. Low <30 mL/min/kg, moderate 30-70 mL/min/kg, high >70 mL/min/kg. The assignment was based on hepatic blood flow i.e. hepatic blood flow of 0-30% low, 30-70% moderate and 70-100% high. The hepatic blood flow in mouse is ˜100 mL/min/kg.

[2] = system: SKOV3; experiment: Cell-Titer Glo Cell Growth Inhibition Assay, SKOV-3; format: cell-based; conditions: Homo sapiens, SK-OV-3, CellTiter-Glo, 72 h, read-out: CTG SKOV-3 IC50
Protocol: (§1) A549-L (human lung), BT474 (human breast), Colo 205 (human colon), H1299 (human lung), Hela (human cervix), HCT-116 (human colon), HN5 (human head and neck), HT29 (human colon), LNCap (human prostate), MCF7 (human breast), MDA-MB468 (human breast), MX-1 (human breast), RPMI 8226 (human peripheral blood), SKOV3 (human ovary) and P388 (murine leukemia) cell lines were cultured in RPMI1640 containing 10% fetal bovine serum at 37° C. in a 5% CO2 incubator. Cell lines were split into T75 flasks (Falcon #353136) two to three days prior to assay set up at density which yields approximately 70-80% confluency at time of harvest for assay. Cells were harvested using 0.25% trypsin with EDTA (Glibco/Invitrogen #25200-056), Cell counts were performed on cell suspensions using Trypan Blue exclusion staining, cells were then plated in 105 uL of culture media per well at the following densities in 96 well Costar #3916 black flat bottom plates: All human cell lines were plated at 500 cells/well. P388 were plated at 250 cells/well. All plates were placed at 5% CO2 37° C. overnight and then test compounds were added the following day. One plate of each cell type is treated with CellTiter-Glo (Promega #G7573) for a day 0 proliferation measurement and read as described below. The test compounds are prepared in clear U bottom polypropylene 96 well plates (Falcon #35-1190 with consecutive two fold dilutions. 9 uL of these dilutions was added into each well of the cell plates. The final concentration of DMSO in all wells is 0.15%. Cells were incubated at 37° C., 5% CO2 for 72 h. Following 72 h of incubation with compounds each plate was developed and read. CellTiter-Glo reagent was added to assay plates using a volume equivalent to the cell culture volume in the wells. Plates were shaken for approximately two minutes and incubated at room temperature for approximately 15 min and the chemiluminescent signal is read on the Victor V or Envison 2100 reader. […] Concentration of compound that inhibited 50% of cell growth (IC50) was analysis by 4 or 6 parameter fit of data using XLfit, value of no cell addition was subtracted from all samples for background.

[3] = system: A549-L; experiment: Cell-Titer Glo Cell Growth Inhibition Assay, A549-L; format: cell-based; conditions: Homo sapiens, CellTiter-Glo, 72 h, read-out: CTG A549-L IC50
Protocol: as §1

[4] = system: HCT-116; experiment: Cell-Titer Glo Cell Growth Inhibition Assay, HCT116; format: cell-based; conditions: Homo sapiens, CellTiter-Glo, 72 h, read-out: CTG HCT116 IC50
Protocol: as §1

[5] = system: Colo 205; experiment: Cell-Titer Glo Cell Growth Inhibition Assay, COLO205; format: cell-based; conditions: Homo sapiens, CellTiter-Glo, 72 h, read-out: CTG COLO205 IC50
Protocol: as §1

[6] = system: P388; experiment: Cell-Titer Glo Cell Growth Inhibition Assay, P388; format: cell-based, murine; conditions: Mus musculus, CellTiter-Glo, 72 h, read-out: CTG P388 IC50
Protocol: as §1

[7] = system: HT29; experiment: Cell-Titer Glo Cell Growth Inhibition Assay, HT29; format: cell-based; conditions: Homo sapiens, HT-29, CellTiter-Glo, 72 h, read-out: CTG HT29 IC50
Protocol: as §1

[8] = system: MX-1; experiment: Cell-Titer Glo Cell Growth Inhibition Assay, MX-1; format: cell-based; conditions: Homo sapiens, MX1, CellTiter-Glo, 72 h, read-out: CTG MX-1 IC50
Protocol: as §1

[9] = molecular target: T1, PLK1 kinase domain (Homo sapiens, UniProt P53350); experiment: Assay for Inhibition of PLK1 (33P SPA kinase assay); format: biochemical; conditions: 2 nM PLK1 kinase domain, 1 μM ATP; read-out: PLK1 pIC50 (converted)
T1 construct: made in house; host or cells: baculovirus infected T. ni cells
Protocol: All procedures were performed at 4° C. Cells were lysed in 50 mM HEPES, 200 mM NaCl, 50 mM imidazole, 5% glycerol; pH 7.5. The homogenate was centrifuged at 14K rpm in a SLA-1500 rotor for 1 h and the supernatant filtered through a 1.2 micron filter. The supernatant was loaded onto a Nickel chelating Sepharose (Amersham Pharmacia) column and washed with lysis buffer. Protein was eluted using 20%, 30% and 100% buffer B steps where buffer B is 50 mM HEPES, 200 mM NaCl, 300 mM imidazole, 5% glycerol; pH 7.5. Fractions containing PLK were determined by SDS-PAGE. Fractions containing PLK were diluted five-fold with 50 mM HEPES, 1 mM DTT, 5% glycerol; pH 7.5, then loaded on an SP Sepharose (Amersham Pharmacia) column. After washing the column with 50 mM HEPES, 1 mM DTT, 5% glycerol; pH 7.5, PLK was step eluted with 50 mM HEPES, 1 mM DTT, 500 mM NaCl; 5% glycerol; pH 7.5. PLK was concentrated using a 10 kDa molecular weight cutoff membrane and then loaded onto a Superdex 200 gel filtration (Amersham Pharmacia) column equilibrated in 25 mM HEPES, 1 mM DTT, 500 mM NaCl, 5% glycerol; pH 7.5. Fractions containing PLK were determined by SDS-PAGE. PLK was pooled, aliquoted and stored at −80° C. Samples were quality controlled using mass spectrometry, N-terminal sequencing and amino acid analysis.
B. Enzyme activity +/− inhibitors was determined as follows:
All measurements were obtained under conditions where signal production increased linearly with time and enzyme. Test compounds were added to white 384-well assay plates (0.1 μL for 10 μL and some 20 μl assays, 1 μL for some 20 μL assays) at variable known concentrations in 100% DMSO. DMSO (1-5% final, as appropriate) and EDTA (65 mM in reaction) were used as controls.
Reaction Mix (10 or 20 μL) was quickly added to each well immediately following addition of enzyme via automated liquid handlers and incubated 1-1.5 h at 22° C. The 20 μL enzymatic reactions were stopped with 50 μL of stop mix (50 mM EDTA, 4.0 mg/mL Streptavidin SPA beads in Standard Dulbecco's PBS (without Mg^2+ and Ca^2+), 50 μM ATP) per well. The 10 μL reactions were stopped with 10 μL of stop mix (50 mM EDTA, 3.0 mg/mL Streptavidin-coupled SPA Imaging Beads (“LeadSeeker”) in Standard Dulbecco's PBS (without Mg^2+ and Ca^2+), 50 μM ATP) per well. Plates were sealed with clear plastic seals, spun at 500×g for 1 min or settled overnight, and counted in Packard TopCount for 30 seconds/well (regular SPA) or imaged using a Viewlux imager (LeadSeeker SPA). Signal above background (EDTA controls) was converted to percent inhibition relative to that obtained in control (DMSO-only) wells.

[10] = system: A549; experiment: Methylene Blue Cell Growth Inhibition Assay, A549; format: cell-based; conditions: Homo sapiens, 72 h, read-out: MEB A549 IC50
Protocol: (§2) Normal human foreskin fibroblasts (HFF), human colon (HCT116, RKO), lung (H460, A549) and breast (MCF7) tumor cell lines were cultured in high glucose DMEM (Life Technologies) containing 10% fetal bovine serum (FBS) at 37° C. in a humidified 5% CO2, 95% air incubator. Cells were harvested using trypsin/EDTA, counted using a haemocytometer, and plated in 100 μL of culture media per well, at the following densities, in a 96-well tissue culture plate (Falcon 3075): HFF 5,000 cells/well, HCT116 3,000 cells/well, RKO 2,500 cells/well, H460 2,500 cells/well, A549 5,000 cells/well, MCF7 4,000 cells/well. The next day, compounds were diluted in low glucose DMEM containing 100 μg/mL gentamicin, at twice the final required concentration, from 10 mM stock solutions in DMSO. 100 μL/well of these dilutions were added to the 100 μL of media currently in the assay plates. Medium containing 0.6% DMSO was added to control wells. The final concentration of DMSO in all wells was 0.3%. Cells were incubated at 37° C., 5% CO2 for 72 h. Medium was removed by aspiration. Cell biomass was estimated by staining cells with 80 μL per well methylene blue (Sigma M9140, 0.5% in 50:50 ethanol:water), and incubation at room temperature for 30-60 min. Stain was removed by aspiration and the plates rinsed by immersion in water, then air-dried. To release stain from the cells, 100 μL of solubilization solution was added (1% N-lauroyl sarcosine, Sodium salt, Sigma L5125, in PBS), and plates were shaken gently for about 30 min. Optical density at 620 nm was measured on a microplate reader. Percent inhibition of cell growth was calculated relative to vehicle treated control wells. Concentration of compound that inhibits 50% of cell growth (IC50) was interpolated using nonlinear regression (Levenberg-Marquardt) and the equation, y=Vmax*(1−(x/(K+x)))+Y2, where “K” was equal to the IC50.

[11] = system: RKO; experiment: Methylene Blue Cell Growth Inhibition Assay, RKO; format: cell-based; conditions: Homo sapiens, 72 h, read-out: MEB RKO IC50
Protocol: as §2

[12] = system: HCT116; experiment: Methylene Blue Cell Growth Inhibition Assay, HCT116; format: cell-based; conditions: Homo sapiens, HCT-116, 72 h, read-out: MEB HCT116 IC50
Protocol: as §2

[13] = system: MX-1; experiment: Methylene Blue Cell Growth Inhibition Assay, MX-1; format: cell-based; conditions: Homo sapiens, MX1, 72 h, read-out: MEB MX-1 IC50
[14] = system: Normal human foreskin fibroblasts (HFF); experiment: Methylene Blue Cell Growth Inhibition Assay, HFF; format: cell-based; conditions: Fibroblast, 72 h, read-out: MEB HFF IC50
Protocol: as §2

[15] = system: H460; experiment: Methylene Blue Cell Growth Inhibition Assay, H460; format: cell-based; conditions: Homo sapiens, NCI-H460, 72 h, read-out: MEB H460 IC50
Protocol: as §2

T1 sequence (P53350 21-346): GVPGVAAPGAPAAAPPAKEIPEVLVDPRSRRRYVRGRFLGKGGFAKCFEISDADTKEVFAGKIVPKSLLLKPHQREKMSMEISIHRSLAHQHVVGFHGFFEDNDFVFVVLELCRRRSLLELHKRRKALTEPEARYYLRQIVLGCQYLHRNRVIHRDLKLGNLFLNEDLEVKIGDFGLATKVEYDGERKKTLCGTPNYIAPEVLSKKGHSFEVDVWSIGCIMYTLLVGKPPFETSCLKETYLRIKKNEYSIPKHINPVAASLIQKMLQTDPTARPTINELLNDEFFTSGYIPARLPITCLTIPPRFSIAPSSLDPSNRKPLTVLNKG

Compound	AUC(0-t) [1]	clearance [1]	IC50 [2]	IC50 [3]	IC50 [4]	IC50 [5]	IC50 [6]	IC50 [7]	IC50 [8]	IC50 [9]	IC50 [10]	IC50 [11]	IC50 [12]	IC50 [13]	IC50 [14]	IC50 [15]
C[C@@H](Oc1cc(-n2cnc3cc(-c4ccnc(N5CCN(C)CC5)c4)ccc32)sc1C(N)=O)c1ccccc1C(F)(F)F [Example 2, 5-{5-[2-(4-Methyl-1-piperazinyl)-4-pyridinyl]-1H-benzimidazol-1-yl}-3-({(1R)-1-[2-(trifluoromethyl)phenyl]ethyl}oxy)-2-thiophenecarboxamide]	2200 ng·h/mL	32.3 mL/min/kg	100 to 1000 nM	< 100 nM	< 100 nM	< 100 nM	100 to 1000 nM	< 100 nM	< 100 nM							
C[C@@H](Oc1cc(-n2cnc3cc(-c4ccnc(NC5CCN(C)CC5)c4)ccc32)sc1C(N)=O)c1ccccc1C(F)(F)F [Example 3, 5-(5-{2-[(1-Methyl-4-piperidinyl)amino]-4-pyridinyl}-1H-benzimidazol-1-yl)-3-({(1R)-1-[2-(trifluoromethyl)phenyl]ethyl}oxy)-2-thiophenecarboxamide]	1850 ng·h/mL	35.6 mL/min/kg	< 100 nM	< 100 nM	< 100 nM	< 100 nM	< 100 nM	< 100 nM	< 100 nM	< 10 nM						
C[C@@H](Oc1cc(-n2cnc3cc(-c4ccnc(N)c4)ccc32)sc1C(N)=O)c1ccccc1C(F)(F)F [Example 4, 5-[5-(2-Amino-4-pyridinyl)-1H-benzimidazol-1-yl]-3-({(1R)-1-[2-(trifluoromethyl)phenyl]ethyl}oxy)-2-thiophenecarboxamide]	1170 ng·h/mL	37.9 mL/min/kg			< 100 nM						< 100 nM	< 100 nM	< 100 nM	< 100 nM	100 to 1000 nM	< 100 nM
C[C@@H](Oc1cc(-n2cnc3cc(-c4ccc(NC5CCN(C)CC5)nc4)ccc32)sc1C(N)=O)c1ccccc1Cl [Example 6, 3-{[(1R)-1-(2-Chlorophenyl)ethyl]oxy}-5-(5-{6-[(1-methyl-4-piperidinyl)amino]-3-pyridinyl}-1H-benzimidazol-1-yl)-2-thiophenecarboxamide]	2780 ng·h/mL	18.6 mL/min/kg	< 100 nM	< 100 nM	< 100 nM	< 100 nM	100 to 1000 nM	< 100 nM	< 100 nM							

Source: patent US20080214563A1, “Benzimidazole Thiophene Compounds As Plk Modulators” (priority 2005, published 2008)
